In paper PMC6199744, “Development of Chemical Proteomics for the Folateome and Analysis of the Kinetoplastid Folateome” (ACS Infectious Diseases, 2018):
Where two headings read alike, the source gives them in different places.

How the values were obtained:
Type in all cases: binding
[1] = molecular target: T1, HeLa cell extract proteins (Homo sapiens, UniProt O95817)
T1 construct: endogenous in cells; host or cells: HeLa cell extract

[2] = molecular target: T2, HeLa cell extract proteins (Homo sapiens, UniProt P24390)
T2 construct: endogenous in cells; host or cells: HeLa cell extract
T2 sequence (P24390 1-212): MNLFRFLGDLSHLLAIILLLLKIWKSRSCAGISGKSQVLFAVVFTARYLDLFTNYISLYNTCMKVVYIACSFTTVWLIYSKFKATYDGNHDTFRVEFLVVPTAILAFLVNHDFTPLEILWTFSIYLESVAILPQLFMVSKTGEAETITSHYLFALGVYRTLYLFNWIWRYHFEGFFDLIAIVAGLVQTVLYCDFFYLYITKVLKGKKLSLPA

[3] = molecular target: T3, HeLa cell extract proteins (Homo sapiens, UniProt Q8NB46)
T3 construct: endogenous in cells; host or cells: HeLa cell extract
T3 sequence (Q8NB46 1-1076): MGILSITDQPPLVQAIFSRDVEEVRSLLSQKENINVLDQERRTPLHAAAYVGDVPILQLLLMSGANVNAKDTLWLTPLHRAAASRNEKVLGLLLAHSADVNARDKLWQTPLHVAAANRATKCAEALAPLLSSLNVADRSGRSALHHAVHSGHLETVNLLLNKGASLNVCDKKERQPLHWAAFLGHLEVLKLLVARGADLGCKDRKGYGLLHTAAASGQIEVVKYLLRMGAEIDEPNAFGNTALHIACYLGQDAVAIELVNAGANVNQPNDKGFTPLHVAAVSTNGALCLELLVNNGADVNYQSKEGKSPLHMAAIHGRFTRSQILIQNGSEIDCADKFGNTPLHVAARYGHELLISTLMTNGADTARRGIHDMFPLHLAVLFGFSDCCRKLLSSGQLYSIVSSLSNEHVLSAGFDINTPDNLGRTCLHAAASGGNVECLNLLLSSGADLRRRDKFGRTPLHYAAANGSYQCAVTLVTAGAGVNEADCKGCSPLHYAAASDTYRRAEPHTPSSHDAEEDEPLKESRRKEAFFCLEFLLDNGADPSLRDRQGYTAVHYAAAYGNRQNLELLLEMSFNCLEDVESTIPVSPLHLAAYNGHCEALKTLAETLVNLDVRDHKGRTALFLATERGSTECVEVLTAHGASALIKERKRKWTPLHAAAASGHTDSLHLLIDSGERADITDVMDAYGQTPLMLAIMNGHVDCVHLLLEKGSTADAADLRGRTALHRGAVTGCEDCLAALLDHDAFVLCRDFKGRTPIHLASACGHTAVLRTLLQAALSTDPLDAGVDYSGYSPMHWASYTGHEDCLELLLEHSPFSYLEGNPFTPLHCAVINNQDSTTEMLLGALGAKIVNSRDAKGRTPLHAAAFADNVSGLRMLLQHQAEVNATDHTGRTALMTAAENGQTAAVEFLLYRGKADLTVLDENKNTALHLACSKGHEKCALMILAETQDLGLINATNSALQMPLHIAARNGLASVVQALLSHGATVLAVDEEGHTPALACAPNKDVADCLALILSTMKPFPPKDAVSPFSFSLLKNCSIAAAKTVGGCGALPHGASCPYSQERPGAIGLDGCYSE

[4] = molecular target: T4, HeLa cell extract proteins (Homo sapiens, UniProt Q99805)
T4 construct: endogenous in cells; host or cells: HeLa cell extract
T4 sequence (Q99805 29-663): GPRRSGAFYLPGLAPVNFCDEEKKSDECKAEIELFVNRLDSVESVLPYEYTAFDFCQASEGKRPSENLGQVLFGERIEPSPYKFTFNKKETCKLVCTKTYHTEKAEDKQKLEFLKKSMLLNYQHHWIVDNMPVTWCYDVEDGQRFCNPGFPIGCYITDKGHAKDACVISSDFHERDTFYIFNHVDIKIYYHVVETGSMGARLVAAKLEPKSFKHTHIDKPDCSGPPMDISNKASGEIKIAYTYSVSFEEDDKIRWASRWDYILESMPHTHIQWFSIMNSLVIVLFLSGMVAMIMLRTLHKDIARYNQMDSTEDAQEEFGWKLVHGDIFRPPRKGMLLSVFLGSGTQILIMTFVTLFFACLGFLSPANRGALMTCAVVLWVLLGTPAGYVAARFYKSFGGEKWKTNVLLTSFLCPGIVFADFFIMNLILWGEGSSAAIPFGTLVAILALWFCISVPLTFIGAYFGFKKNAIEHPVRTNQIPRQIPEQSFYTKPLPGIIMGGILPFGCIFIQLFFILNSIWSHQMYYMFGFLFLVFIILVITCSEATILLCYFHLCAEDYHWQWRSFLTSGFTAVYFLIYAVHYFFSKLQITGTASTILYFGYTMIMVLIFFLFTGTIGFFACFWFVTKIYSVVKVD

[5] = molecular target: T5, HeLa cell extract proteins (Homo sapiens, UniProt P00390); conditions: protein GSR; HeLa
T5 construct: endogenous in cells; host or cells: HeLa cell extract
T5 sequence (P00390 44-522): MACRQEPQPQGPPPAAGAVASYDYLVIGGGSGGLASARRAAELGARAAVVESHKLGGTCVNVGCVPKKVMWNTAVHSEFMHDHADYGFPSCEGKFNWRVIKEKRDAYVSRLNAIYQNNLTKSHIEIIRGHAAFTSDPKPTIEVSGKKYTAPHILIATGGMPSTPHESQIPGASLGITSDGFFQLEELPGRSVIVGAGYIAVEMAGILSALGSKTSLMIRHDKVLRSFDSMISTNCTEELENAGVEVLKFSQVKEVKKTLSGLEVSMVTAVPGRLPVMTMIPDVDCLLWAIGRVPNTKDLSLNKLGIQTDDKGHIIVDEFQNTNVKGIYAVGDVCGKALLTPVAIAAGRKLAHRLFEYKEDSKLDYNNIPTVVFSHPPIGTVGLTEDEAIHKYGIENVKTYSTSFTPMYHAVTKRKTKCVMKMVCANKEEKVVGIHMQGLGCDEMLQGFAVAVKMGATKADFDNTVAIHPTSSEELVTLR

[6] = molecular target: T6, HeLa cell extract proteins (Homo sapiens, UniProt P46109); conditions: HeLa; protein CRKL
T6 construct: endogenous in cells; host or cells: HeLa cell extract
T6 sequence (P46109 whole entry): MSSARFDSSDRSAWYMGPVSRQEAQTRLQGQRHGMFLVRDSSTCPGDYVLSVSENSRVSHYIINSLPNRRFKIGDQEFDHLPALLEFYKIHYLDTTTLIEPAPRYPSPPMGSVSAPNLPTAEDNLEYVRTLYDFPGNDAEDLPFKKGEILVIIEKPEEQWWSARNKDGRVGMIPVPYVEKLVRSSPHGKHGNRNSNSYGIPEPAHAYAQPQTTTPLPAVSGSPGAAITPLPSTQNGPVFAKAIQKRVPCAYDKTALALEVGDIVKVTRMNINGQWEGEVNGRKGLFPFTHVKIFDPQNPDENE

[7] = molecular target: T7, HeLa cell extract proteins (Homo sapiens, UniProt Q9UGJ1); conditions: HeLa; protein TUBGCP4
T7 construct: endogenous in cells; host or cells: HeLa cell extract
T7 sequence (Q9UGJ1 whole entry): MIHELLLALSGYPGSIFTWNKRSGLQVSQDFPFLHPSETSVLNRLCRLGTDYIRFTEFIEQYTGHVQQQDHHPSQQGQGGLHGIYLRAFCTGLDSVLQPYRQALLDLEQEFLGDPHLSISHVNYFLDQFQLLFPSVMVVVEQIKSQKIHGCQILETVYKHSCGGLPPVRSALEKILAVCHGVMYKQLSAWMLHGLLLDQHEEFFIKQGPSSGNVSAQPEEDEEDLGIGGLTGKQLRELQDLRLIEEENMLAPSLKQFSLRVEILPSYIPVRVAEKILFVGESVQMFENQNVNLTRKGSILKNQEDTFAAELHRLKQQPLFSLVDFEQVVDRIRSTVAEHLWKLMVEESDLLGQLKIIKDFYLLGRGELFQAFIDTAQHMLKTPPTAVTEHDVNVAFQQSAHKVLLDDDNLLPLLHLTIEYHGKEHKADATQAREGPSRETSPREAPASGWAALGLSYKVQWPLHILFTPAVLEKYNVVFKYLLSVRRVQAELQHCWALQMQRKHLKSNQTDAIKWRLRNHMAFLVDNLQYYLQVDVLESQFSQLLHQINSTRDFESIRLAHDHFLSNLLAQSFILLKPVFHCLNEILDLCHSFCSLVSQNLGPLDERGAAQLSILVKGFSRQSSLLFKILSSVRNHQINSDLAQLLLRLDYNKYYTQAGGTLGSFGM

T1 sequence (O95817 whole entry): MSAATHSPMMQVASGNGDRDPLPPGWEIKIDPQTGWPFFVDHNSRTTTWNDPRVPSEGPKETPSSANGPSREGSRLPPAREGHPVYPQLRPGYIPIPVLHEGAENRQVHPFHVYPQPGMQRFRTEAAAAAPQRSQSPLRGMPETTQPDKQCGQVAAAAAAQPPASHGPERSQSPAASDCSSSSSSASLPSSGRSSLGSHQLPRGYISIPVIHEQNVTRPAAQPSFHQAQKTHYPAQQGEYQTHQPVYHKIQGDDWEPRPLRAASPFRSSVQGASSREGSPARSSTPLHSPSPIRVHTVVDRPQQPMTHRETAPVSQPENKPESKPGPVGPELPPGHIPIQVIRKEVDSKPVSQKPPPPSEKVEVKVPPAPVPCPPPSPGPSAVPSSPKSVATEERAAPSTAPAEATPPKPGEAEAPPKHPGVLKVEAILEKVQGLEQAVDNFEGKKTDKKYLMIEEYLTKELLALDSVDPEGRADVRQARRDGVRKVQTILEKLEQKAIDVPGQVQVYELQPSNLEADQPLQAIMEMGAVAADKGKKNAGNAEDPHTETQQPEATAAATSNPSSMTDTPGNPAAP

Row | SMILES | fold changes relative to vehicle control ([1]; HeLa, protein BAG3) | fold changes relative to vehicle control ([2]; HeLa, protein KDELR1) | fold changes relative to vehicle control ([3]; HeLa, protein ANKRD52) | fold changes relative to vehicle control ([4]; HeLa, protein TM9SF2) | fold changes relative to vehicle control [5] | fold changes relative to vehicle control [6] | fold changes relative to vehicle control [7] | also measured
1 | Nc1nc2c(c(=O)[nH]1)N(C=O)C(CNc1ccc(C(=O)N[C@@H](CCC(=O)O)C(=O)O)cc1)CN2 (stereo partly shown) [LEU, leucovorin] | 0.91 | 1.06 | 0.89 | 0.74 |  |  |  | 
2 | Nc1nc2[nH]cc(CCc3ccc(C(=O)N[C@@H](CCC(=O)O)C(=O)O)cc3)c2c(=O)[nH]1 [PTX, pemetrexed] |  |  |  |  |  |  |  | fold changes relative to vehicle control [1]: 0.96; fold changes relative to vehicle control [2]: 1.16; fold changes relative to vehicle control [3]: 1.01; fold changes relative to vehicle control [4]: 0.76
3 | CCCCCCOc1ccc(Cc2cnc(N)nc2N)cc1 [compound 1] |  |  |  |  | 0.94 | 0.82 | 0.85 | 
4 | CCCCCCOc1cccc(Cc2cnc(N)nc2N)c1 [compound 2] |  |  |  |  | 1.15 | 0.96 | 1.07 | 
5 | Nc1nc2cccc(-c3ccccc3)c2n1Cc1ccc(Cl)c(Cl)c1 [compound 3] |  |  |  |  | 1 | 1.15 | 1.02 | 
6 | NCCOCCOCC(=O)Nc1nc2ncc(CNc3ccc(C(=O)NC(CCC(=O)O)C(=O)O)cc3)nc2c(=O)[nH]1 (stereo not shown) [compound 6] | 1.17 | 2.19 | 1.06 | 0.84 |  |  |  | 
7 | NCCCNc1ccc(C(=O)NC(CCC(=O)O)C(=O)O)cc1 (stereo not shown) [compound 7] | 0.89 | 1.25 | 1.03 | 0.82 |  |  |  | 
